Test results taken from PubChem BioAssay AID2060511 (Molecular Pharmacology Branch, DTP, NCI, 2025).

Tested on: 422866-222-R5-J1-PDC spheroids with HUVEC/MSC, viability
Test: Anticancer human tumor 422866-222-R5-J1-PDC patient-derived pancreatic adenocarcinoma cell line growth inhibition [GQUAD]
Details: for IC50: curve of first compound; for viability, T/C: stronger effect = lower value
Outline: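 Multi-cell-type spheroids of tumor cells with HUVEC and mesenchymal stem cells, treated with drug combinations. Concentrations descend in half-log steps from near clinical Cmax, or from 10 microM where Cmax is unknown; viability read-out.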

[1] = second compound 0.0316 µM, first compound 0.0316 µM
[2] = second compound 0.0316 µM, first compound 0.1 µM
[3] = second compound 0.0316 µM, first compound 0.316 µM
[4] = second compound 0.0316 µM, first compound 1 µM
[5] = second compound 0.0316 µM, first compound 3.16 µM
[6] = second compound 0.0316 µM, first compound 10 µM
[7] = second compound 0.1 µM, first compound 0.0316 µM
[8] = second compound 0.1 µM, first compound 0.1 µM
[9] = second compound 0.1 µM, first compound 0.316 µM
[10] = second compound 0.1 µM, first compound 1 µM
[11] = second compound 0.1 µM, first compound 3.16 µM
[12] = second compound 0.1 µM, first compound 10 µM
[13] = second compound 0.316 µM, first compound 0.0316 µM
[14] = second compound 0.316 µM, first compound 0.1 µM
[15] = second compound 0.316 µM, first compound 0.316 µM
[16] = second compound 0.316 µM, first compound 1 µM
[17] = second compound 0.316 µM, first compound 3.16 µM
[18] = second compound 0.316 µM, first compound 10 µM
[19] = second compound 1 µM, first compound 0.0316 µM
[20] = second compound 1 µM, first compound 0.1 µM
[21] = second compound 1 µM, first compound 0.316 µM
[22] = second compound 1 µM, first compound 1 µM
[23] = second compound 1 µM, first compound 3.16 µM
[24] = second compound 1 µM, first compound 10 µM
[25] = second compound 3.16 µM, first compound 0.0316 µM
[26] = second compound 3.16 µM, first compound 0.1 µM
[27] = second compound 3.16 µM, first compound 0.316 µM
[28] = second compound 3.16 µM, first compound 1 µM
[29] = second compound 3.16 µM, first compound 3.16 µM
[30] = second compound 3.16 µM, first compound 10 µM
[31] = second compound 10 µM, first compound 0.0316 µM
[32] = second compound 10 µM, first compound 0.1 µM
[33] = second compound 10 µM, first compound 0.316 µM
[34] = second compound 10 µM, first compound 1 µM
[35] = second compound 10 µM, first compound 3.16 µM
[36] = second compound 10 µM, first compound 10 µM
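Also: spheroids exposed to compounds for seven days before reading.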
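For viability, T/C in this document: percent viability relative to DMSO vehicle control taken as 100%.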

## Nc1ccn(C2OC(CO)C(O)C2(F)F)c(=O)n1 (centres undefined) + Cc1[nH]c2ccc(F)cc2c1-c1nc2c3cccnc3c3ncccc3c2[nH]1
Second compound 0.0316 µM
  IC50: 0.8 µM
Second compound 0.1 µM
  IC50: 0.427 µM
Second compound 0.316 µM
  IC50: 1.2 µM
Second compound 1 µM
  IC50: 0.504 µM
Second compound 3.16 µM
  IC50: 0.347 µM
Second compound 10 µM
  IC50: 0.49 µM
[1]
  viability, T/C: 85.1%
[2]
  viability, T/C: 75.8%
[3]
  viability, T/C: 63.3%
[4]
  viability, T/C: 46%
[5]
  viability, T/C: 41.1%
[6]
  viability, T/C: 41.8%
[7]
  viability, T/C: 83.8%
[8]
  viability, T/C: 82.2%
[9]
  viability, T/C: 52.5%
[10]
  viability, T/C: 42.2%
[11]
  viability, T/C: 43.7%
[12]
  viability, T/C: 42.5%
[13]
  viability, T/C: 97.8%
[14]
  viability, T/C: 80.9%
[15]
  viability, T/C: 67.8%
[16]
  viability, T/C: 49.9%
[17]
  viability, T/C: 42%
[18]
  viability, T/C: 35.2%
[19]
  viability, T/C: 91.5%
[20]
  viability, T/C: 75.9%
[21]
  viability, T/C: 53.2%
[22]
  viability, T/C: 45.1%
[23]
  viability, T/C: 45.2%
[24]
  viability, T/C: 43.3%
[25]
  viability, T/C: 83.4%
[26]
  viability, T/C: 62.3%
[27]
  viability, T/C: 52.6%
[28]
  viability, T/C: 42.3%
[29]
  viability, T/C: 42.2%
[30]
  viability, T/C: 42.9%
[31]
  viability, T/C: 72.3%
[32]
  viability, T/C: 67.6%
[33]
  viability, T/C: 55.4%
[34]
  viability, T/C: 39.9%
[35]
  viability, T/C: 43%
[36]
  viability, T/C: 41.2%

## O=C(c1cc(Cc2n[nH]c(=O)c3ccccc23)ccc1F)N1CCN(C(=O)C2CC2)CC1 + Cc1[nH]c2ccc(F)cc2c1-c1nc2c3cccnc3c3ncccc3c2[nH]1
Second compound 0.0316 µM
  IC50: > 10 µM
Second compound 0.1 µM
  IC50: > 10 µM
Second compound 0.316 µM
  IC50: > 10 µM
Second compound 1 µM
  IC50: > 10 µM
Second compound 3.16 µM
  IC50: > 10 µM
Second compound 10 µM
  IC50: > 10 µM
[1]
  viability, T/C: 99%
[2]
  viability, T/C: 87.9%
[3]
  viability, T/C: 91%
[4]
  viability, T/C: 77%
[5]
  viability, T/C: 83.1%
[6]
  viability, T/C: 65.6%
[7]
  viability, T/C: 102%
[8]
  viability, T/C: 85.1%
[9]
  viability, T/C: 86%
[10]
  viability, T/C: 89.2%
[11]
  viability, T/C: 93%
[12]
  viability, T/C: 81.4%
[13]
  viability, T/C: 104%
[14]
  viability, T/C: 83.9%
[15]
  viability, T/C: 90.6%
[16]
  viability, T/C: 72.8%
[17]
  viability, T/C: 87.4%
[18]
  viability, T/C: 79.7%
[19]
  viability, T/C: 89.9%
[20]
  viability, T/C: 100%
[21]
  viability, T/C: 89.2%
[22]
  viability, T/C: 88.7%
[23]
  viability, T/C: 94.7%
[24]
  viability, T/C: 83.6%
[25]
  viability, T/C: 79.4%
[26]
  viability, T/C: 83.5%
[27]
  viability, T/C: 75.4%
[28]
  viability, T/C: 100%
[29]
  viability, T/C: 81.7%
[30]
  viability, T/C: 79.6%
[31]
  viability, T/C: 66.6%
[32]
  viability, T/C: 70.8%
[33]
  viability, T/C: 81.2%
[34]
  viability, T/C: 64.2%
[35]
  viability, T/C: 85.9%
[36]
  viability, T/C: 77.7%
